Reference: the NIST ThermoML archive (doi:10.1016/j.jct.2018.02.018)

How the values were obtained:
[1] = xn = mol fraction of the nth substance listed; conditions: 100 kPa, Liquid; for speed of sound: Frequency=3 MHz, Single path-length method; for mass density: Vibrating tube method
[2] = refractive index (Na D-line) (dimensionless); xn = mol fraction of the nth substance listed; conditions: 100 kPa, Liquid, Standard Abbe refractometry

NCCO [2-aminoethan-1-ol] + C[S+](C)[O-]
Conditions | mass density, [1] [kg/m3] | refractive index, [2] | speed of sound, [1] [m/s]
293.15 K, x2 = 0 | 1016 | 1.455 | 1734.2
293.15 K, x2 = 0.1026 | 1026 | 1.457 | 1701.8
293.15 K, x2 = 0.2008 | 1035 | 1.46 | 1672.3
293.15 K, x2 = 0.2981 | 1043 | 1.462 | 1645.9
293.15 K, x2 = 0.3966 | 1051 | 1.465 | 1619.8
293.15 K, x2 = 0.4933 | 1059 | 1.467 | 1595.4
293.15 K, x2 = 0.6021 | 1068 | 1.469 | 1571.2
293.15 K, x2 = 0.6969 | 1076 | 1.472 | 1550.6
293.15 K, x2 = 0.7998 | 1083 | 1.474 | 1533.3
293.15 K, x2 = 0.9005 | 1092 | 1.476 | 1517.8
303.15 K, x2 = 0 | 1008 | 1.451 | 1702.2
303.15 K, x2 = 0.1026 | 1017 | 1.454 | 1669.2
303.15 K, x2 = 0.2008 | 1026 | 1.455 | 1639.1
303.15 K, x2 = 0.2981 | 1034 | 1.458 | 1611.9
303.15 K, x2 = 0.3966 | 1042 | 1.46 | 1585.5
303.15 K, x2 = 0.4933 | 1050 | 1.463 | 1561.2
303.15 K, x2 = 0.6021 | 1058 | 1.465 | 1537
303.15 K, x2 = 0.6969 | 1066 | 1.467 | 1516.6
303.15 K, x2 = 0.7998 | 1074 | 1.469 | 1499
303.15 K, x2 = 0.9005 | 1082 | 1.472 | 1484
313.15 K, x2 = 0 | 1000 | 1.447 | 1669.4
313.15 K, x2 = 0.1026 | 1009 | 1.45 | 1636.3
313.15 K, x2 = 0.2008 | 1017 | 1.452 | 1605.3
313.15 K, x2 = 0.2981 | 1025 | 1.454 | 1578.3
313.15 K, x2 = 0.3966 | 1033 | 1.456 | 1551.7
313.15 K, x2 = 0.4933 | 1041 | 1.458 | 1527.2
313.15 K, x2 = 0.6021 | 1049 | 1.461 | 1503
313.15 K, x2 = 0.6969 | 1057 | 1.463 | 1483.1
313.15 K, x2 = 0.7998 | 1064 | 1.465 | 1465.2
313.15 K, x2 = 0.9005 | 1072 | 1.468 | 1449.9
323.15 K, x2 = 0 | 992 | 1.443 | 1637.3
323.15 K, x2 = 0.1026 | 1001 | 1.446 | 1603.2
323.15 K, x2 = 0.2008 | 1009 | 1.449 | 1571.9
323.15 K, x2 = 0.2981 | 1017 | 1.45 | 1544.7
323.15 K, x2 = 0.3966 | 1024 | 1.452 | 1517.9
323.15 K, x2 = 0.4933 | 1031 | 1.454 | 1493.4
323.15 K, x2 = 0.6021 | 1039 | 1.457 | 1469.3
323.15 K, x2 = 0.6969 | 1047 | 1.459 | 1449.4
323.15 K, x2 = 0.7998 | 1054 | 1.461 | 1431.7
323.15 K, x2 = 0.9005 | 1062 | 1.463 | 1416.4
